Source: patent publication US20120225937A1, “CRYSTALLINE FORMS AND PROCESSES FOR THE PREPARATION OF PG12 RECEPTOR AGONISTS” (Arena Pharmaceuticals, Inc., priority 2009, published 2012)
Structures can show the parent of a compound that is named as a salt.

Experiment: Dynamic moisture sorption (DMS) analysis of crystalline forms
Type: physicochemical
Details: for DMS: weight picked up at 90% RH / DMS: increase of weight at about 90% relative humidity: isotherm 25° C.; for Change of crystal form during DMS analysis (in words): high % RH; for DMS: increase of weight at about 90% relative humidity: physical-property summary tables; for Hygroscopicity by DMS (in words): up to 90% RH
Procedure: Further characterization with respect to hygroscopicity of the crystalline forms can be gauged by, for example, dynamic moisture sorption (DMS). The DMS features reported herein can vary by plus or minus about 5% relative humidity. The DMS features reported herein can also vary by plus or minus about 5% weight change.
Samples are prepared for dynamic moisture-sorption analysis by placing ˜5 mg to ˜20 mg of compound in a tarred sample holder on the VTI balance. The instrument is a dynamic moisture-sorption analyzer, VTI Corporation, SGA-100, equipment #0228. A drying step is run at 40° C. and ˜1% RH for 1 h. The isotherm temperature is 25° C. A % weight change over 10 min (5 weight readings) of dm/dt=0.010 or 2 h, whichever occurs first, is required before continuing to the next step. The water content of the sample equilibrated as described above was determined from 30% RH to 90% RH and then back down to 10% RH.

For O.O=C(COC[C@H]1CC[C@H](COC(=O)N(c2ccccc2)c2ccc(Cl)cc2)CC1)NCCS(=O)(=O)O [Compound Ia free acid hydrate, 2-(2-(((1r,4r)-4-(((4-chlorophenyl)(phenyl)carbamoyloxy)methyl)cyclohexyl)methoxy)acetamido)ethanesulfonic acid hydrate], the “DMS: weight picked up at 90% RH” value was “over 10 % by weight”, the “Change of crystal form during DMS analysis (in words)” value was “form a new hydrate crystal phase at high % RH values” and the “DMS: increase of weight at about 90% relative humidity” value was “FIG. 3: Increase of about 10% weight at about 90% relative”. The “Hygroscopicity by DMS (in words)” value was “hygroscopic”.
In the case of O.O=C(COC[C@H]1CC[C@H](COC(=O)N(c2ccccc2)c2ccc(Cl)cc2)CC1)NCCS(=O)(=O)[O-].O=C(COC[C@H]1CC[C@H](COC(=O)N(c2ccccc2)c2ccc(Cl)cc2)CC1)NCCS(=O)(=O)[O-].[Mg+2] [Compound Ia magnesium salt hydrate, magnesium 2-(2-(((1r,4r)-4-(((4-chlorophenyl)(phenyl)carbamoyloxy)methyl)cyclohexyl)methoxy)acetamido)ethanesulfonate hydrate], the “DMS: weight picked up at 90% RH” value is reported as 1.2 % by weight, the “DMS: increase of weight at about 90% relative humidity” value is reported as “FIG. 14: Increase of 1.2% weight at about 90% relative humidity” and the “Hygroscopicity by DMS (in words)” value is reported as “slightly hygroscopic”.
For O.O=C(COC[C@H]1CC[C@H](COC(=O)N(c2ccccc2)c2ccc(Cl)cc2)CC1)NCCS(=O)(=O)[O-].O=C(COC[C@H]1CC[C@H](COC(=O)N(c2ccccc2)c2ccc(Cl)cc2)CC1)NCCS(=O)(=O)[O-].[Ca+2] [Compound Ia calcium salt hydrate I, calcium 2-(2-(((1r,4r)-4-(((4-chlorophenyl)(phenyl)carbamoyloxy)methyl)cyclohexyl)methoxy)acetamido)ethanesulfonate hydrate I], the “DMS: weight picked up at 90% RH” value was “about 7 % by weight”, the “Change of crystal form during DMS analysis (in words)” value was “converting to Compound Ia calcium salt hydrate IV” and the “DMS: increase of weight at about 90% relative humidity” value was “FIG. 17: Increase of 7% weight at about 90% relative humidity”. For the same compound, the “Hygroscopicity by DMS (in words)” value was “hygroscopic”.
In the case of O.O=C(COC[C@H]1CC[C@H](COC(=O)N(c2ccccc2)c2ccc(Cl)cc2)CC1)NCCS(=O)(=O)[O-].[K+] [Compound Ia potassium salt hydrate, potassium 2-(2-(((1r,4r)-4-(((4-chlorophenyl)(phenyl)carbamoyloxy)methyl)cyclohexyl)methoxy)acetamido)ethanesulfonate hydrate], the “DMS: weight picked up at 90% RH” value is reported as 3-4 % by weight and the “Hygroscopicity by DMS (in words)” value is reported as “slightly hygroscopic”.
For N=C(N)NCCC[C@H](N)C(=O)O.O.O=C(COC[C@H]1CC[C@H](COC(=O)N(c2ccccc2)c2ccc(Cl)cc2)CC1)NCCS(=O)(=O)O [Compound Ia L-arginine salt hydrate, L-arginine 2-(2-(((1r,4r)-4-(((4-chlorophenyl)(phenyl)carbamoyloxy)methyl)cyclohexyl)methoxy)acetamido)ethanesulfonate hydrate], the “DMS: weight picked up at 90% RH” value was “about 1 % by weight”, the “DMS: increase of weight at about 90% relative humidity” value was “FIG. 31: Increase of about 1% weight at about 90% relative” and the “Hygroscopicity by DMS (in words)” value was “slightly hygroscopic”.
For O=C(COC[C@H]1CC[C@H](COC(=O)N(c2ccccc2)c2ccc(Cl)cc2)CC1)NCCS(=O)(=O)O [Compound Ia TRIS salt, 2-(2-(((1r,4r)-4-(((4-Chlorophenyl)(phenyl)carbamoyloxy)methyl)cyclohexyl)methoxy)acetamido)ethanesulfonic Acid], the “DMS: weight picked up at 90% RH” value was “about 1.2 % by weight” and the “Hygroscopicity by DMS (in words)” value was “slightly hygroscopic”.
